Patent US12258344B2, “Azaaromatic amide derivatives for the treatment of cancer” (SHENZHEN FORWARD PHARMACEUTICALS CO., LTD., priority 2019, dated 2025)
Like-named read-outs stand apart in the source and are kept apart here.

How the values were obtained:
Format in all cases: cell-based
[1] = target: T1, BaF3 (EGFR/D770insSVD) (Homo sapiens, UniProt P00533, DUP768-770, cells depend on it); assay: Test 13: EGFR exon 20 inserted D770insSVD cell proliferation test; details: BaF3 (EGFR/D770insSVD), 72 hours, Cell Titer-Glo, read-out: Test 13 IC50
T1 construct: Test 13 IC50 (nM); other: BaF3 (EGFR/D770insSVD), 72 hours, Cell Titer-Glo
How it was run: (§1)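 BaF3 cells expressing EGFR D770insSVD, 3,000 cells/well, seeded overnight at 37° C, 5% CO2, then exposed to serially diluted compound for 72 h. Viable cells read by CellTiter-Glo luminescence; values from curve fitting.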

[2] = target: BaF3 (EGFR/A763insFQEA) (Homo sapiens, UniProt P00533, INS763FQEA, cells depend on it); assay: Test 14: EGFR exon 20 inserted A763insFQEA cell proliferation test; details: 72 hours, Cell Titer-Glo, read-out: Test 14 IC50
Description: Test 14: EGFR Exon 20 Inserted A763insFQEA Cell Proliferation Test
(§2) The number of viable cells in the culture was measured according to the protocol described in Promega's Cell Titer-Glo Luminescent cell Viability Assay (Promega catalog number #G7570). 90 μl of cells (3,000 cells/well) were cultured in growth medium in a Corning black transparent bottom 96-well plate, and cultured in a 5% CO2 humidified incubator at 37° C. overnight. The compound serially diluted in 100% DMSO was added to the cells using a pipette, and the cells were incubated for another 72 hours. 100 μl of the mixed Cell Titer-Glo reagent was added to the cells in the 96-well culture plate to lyse the cells and mix gently. Subsequently, the […] was detected on the Envision microplate detector to obtain the data of each compound. Finally, the data was input into a suitable software package (such as Prism) for curve fitting analysis.

[3] = target: BaF3 (EGFR/V769insASV) (Homo sapiens, UniProt P00533, DUP767-769, cells depend on it); assay: Test 15: EGFR exon 20 inserted V769insASV cell proliferation test; details: 72 hours, Cell Titer-Glo, read-out: Test 15 IC50
Description: Test 15: EGFR Exon 20 Inserted V769insASV Cell Proliferation Test
as §2, with “(3000” for “(3,000”

[4] = target: T2, BaF3 (EGFR/N771insH) (Homo sapiens, UniProt P00533, cells depend on it, form not given); assay: Test 16: EGFR exon 20 inserted N771insH cell proliferation test; details: BaF3 (EGFR/N771insH), 72 hours, Cell Titer-Glo, read-out: Test 16 IC50
T2 construct: Test 16 IC50 (nM); other: BaF3 (EGFR/N771insH), 72 hours, Cell Titer-Glo

[5] = target: BaF3 (EGFR/D770insNPG) (Homo sapiens, UniProt P00533, cells depend on it, form not given); assay: Test 17: EGFR exon 20 inserted D770insNPG cell proliferation test; details: 72 hours, Cell Titer-Glo, read-out: Test 17 IC50
Description: Test 17: EGFR Exon 20 Inserted D770insNPG Cell Proliferation Test
as §2

[6] = target: T3, BaF3 (EGFR/S768I) (Homo sapiens, UniProt P00533, cells depend on it, form not given); assay: Test 19: EGFR/S768I mutant cell line proliferation test; details: EGFR S768I and EGFR L861Q (tests 19-20), in words
T3 construct: other: EGFR S768I and EGFR L8
Description: Test 19: EGFR/S768I Mutant Cell Line Proliferation Test
as §2

[7] = tested on: NCI-H1975 (EGFR L858R/T790M double mutant); assay: Test 1: EGFR L858R/T790M (EGFR double mutant) cell proliferation test; details: Homo sapiens; NCI-H1975 cells, 72 hours, Cell Titer-Glo
[8] = target: BaF3 (HER2-A775insYVMA) (Homo sapiens, UniProt P04626, DUP772-775, cells depend on it); assay: Test 9: BaF3 (HER2-A775insYVMA) cell proliferation test; details: 72 hours, Cell Titer-Glo, read-out: Test 9 - IC50
Description: Test 9: BaF3 (HER2-A775insYVMA) Cell Proliferation Test
BaF3 (HER2-A775insYVMA) was cultured in RPMI1640 medium containing 10% fetal bovine serum and 2 mM glutamine. The cells were grown at 37° C. in a humidified incubator with 5% CO2.
as §2

[9] = target: BaF3 (HER2-P780insGSP) (Homo sapiens, UniProt P04626, DUP778-780, cells depend on it); assay: Test 10: BaF3 (HER2-P780insGSP) cell proliferation test; details: 72 hours, Cell Titer-Glo, read-out: Test 10 - IC50
Description: Test 10: BaF3 (HER2-P780insGSP) Cell Proliferation Test
BaF3 (HER2-P780insGSP) was cultured in RPMI1640 medium containing 10% fetal bovine serum and 2 mM glutamine. The cells were grown at 37° C. in a humidified incubator with 5% CO2.
as §2

[10] = target: BaF3 (HER2-G776insVC) (Homo sapiens, UniProt P04626, cells depend on it, form not given); assay: Test 11: BaF3 (HER2-G776insVC) cell proliferation test; details: 72 hours, Cell Titer-Glo, read-out: Test 11 - IC50
Description: Test 11: BaF3 (HER2-G776insVC) Cell Proliferation Test
(§3) The engineered cell line BaF3 (HER2-G776insVC) was constructed by the inventor himself (for the method of cell line construction, see Jingrui Jiang et al., Cancer Res. 2005 Oct. 1; 65 (19): 8964-74; Jacqulyne P. Robichaux et al., Nat Med. 2018 May; 24 (5): 638-646). BaF3 (HER2-G776insVC) was cultured in RPMI1640 medium containing 10% fetal bovine serum and 2 mM glutamine. The cells were grown at 37° C. in a humidified incubator with 5% CO2.
as §2

[11] = target: T4, BaF3 (HER2/A775insYVMA) (Homo sapiens, UniProt P04626, cells depend on it, form not given); assay: Test 21: HER2 exon 20 inserted A775insYVMA cell proliferation test; details: read-out: test 21 IC50; BaF3 (HER2/A775insYVMA), 72 hours, Cell Titer-Glo
T4 construct: other: BaF3 (HER2/A775insYVMA), 72 hours, Cell Titer-Glo
Description: (§4) Test 21: HER2 Exon 20 Inserted A775insYVMA Cell Proliferation Test
as §2

[12] = target: BaF3 (HER2/P780insGSP) (Homo sapiens, UniProt P04626, cells depend on it, form not given); assay: Test 22: HER2 exon 20 inserted P780insGSP cell proliferation test; details: 72 hours, Cell Titer-Glo, read-out: test 22 IC50
Description: Test 22: HER2 Exon 20 Inserted P780insGSP Cell Proliferation Test
as §3, with “(HER2/P780insGSP)” for “(HER2-G776insVC)”, “RPMI 1640” for “RPMI1640”, “glutamine, and the” for “glutamine. The”
as §2

[13] = target: BaF3 (HER2/G776insVC) (Homo sapiens, UniProt P04626, cells depend on it, form not given); assay: Test 23: HER2 exon 20 inserted G776insVC cell proliferation test; details: read-out: test 23 IC50, 72 hours, Cell Titer-Glo
Description: Test 23: HER2 Exon 20 Inserted G776insVC Cell Proliferation Test
as §2

[14] = target: T5, BaF3 (EGFR/D770insSVD) (Homo sapiens, UniProt P00533, cells depend on it, form not given); assay: Test 13: EGFR exon 20 inserted D770insSVD cell proliferation test; details: A763insFQEA, V769insASV, D770insSVD (tests 13-15), in words
T5 construct: other: A763insFQEA, V769ins
How it was run: as §1

[15] = target: T6, BaF3 (HER2/A775insYVMA) (Homo sapiens, UniProt P04626, cells depend on it, form not given); assay: Test 21: HER2 exon 20 inserted A775insYVMA cell proliferation test; details: tests 21-23, in words
T6 construct: other: tests 21-23, in words; other: HER2 exon 20 insertion mutation cells, tests 21-23
Description: as §4, §2

In the case of `C=CC(=O)Nc1cc(Nc2nccc(-c3cn(C)c4ccccc34)n2)c(OCC(F)(F)F)nc1N(C)CCN(C)C.CS(=O)(=O)O` [Compound 31, N-(2-((2-(dimethylamino)ethyl(methyl)amine)-5-((4-(1-methyl-1H-indol-3-yl)pyrimidine-2-yl)amino)-6-(2,2,2-trifluoroethoxy)pyridin-3-yl)acrylamide methanesulfonate], the GI50 [1] is reported as 45 nM, the GI50 [2] is reported as 13 nM and the GI50 [3] is reported as 28.4 nM. For the same compound, the GI50 [4] was 9.43 nM and the GI50 [5] was 4.58 nM.
Compound `C=CC(=O)Nc1cc(Nc2nccc(-c3cn(C)c4ccccc34)n2)c(OCC(F)(F)F)nc1N(C)CCN(C)C.Cl` [Compound 32, N-(2-((2-(dimethylamino)ethyl(methyl)amine)-5-((4-(1-methyl-1H-indol-3-yl)pyrimidine-2-yl)amine)-6-(2,2,2-trifluoroethoxy)pyridin-3-yl)acrylamide hydrochloride] has a GI50 ([1]; hydrochloride) of 54.5 nM, a GI50 ([2]; hydrochloride) of 15.7 nM and a GI50 ([3]; hydrochloride) of 26.9 nM. For the same compound, the GI50 ([4]; hydrochloride) was 10.2 nM and the GI50 ([5]; hydrochloride) was 4.73 nM.
In the case of `C=CC(=O)Nc1cc(Nc2nccc(-c3cn(C)c4ccccc34)n2)c(OCC(F)(F)F)nc1N(C)CCN(C)C` [Compound 33], the GI50 [1] is reported as 49.5 nM, the GI50 [2] is reported as 15 nM and the GI50 [3] is reported as 25.7 nM. For the same compound, the GI50 [4] was 10.1 nM, the GI50 [5] was 5.87 nM and the “activity compared with Osimertinib (AZD9291) against EGFR S768I and EGFR L861Q mutations” value [6] was “superior activity over Osimertinib (AZD9291)”.
With `C=CC(=O)Nc1cc(Nc2nccc(-c3cn(C)c4ccccc34)n2)c(OC)cc1N(C)CCN(C)C` [Osimertinib (AZD9291), Osimertinib, reference compound] the IC50 [7] was […], the GI50 [8] was 61.2 nM and the GI50 [9] was 32.2 nM. The GI50 [10] was 21.5 nM, the GI50 [11] was 32.2 nM and the GI50 [12] was 21.5 nM. For the same compound, the GI50 [13] was 61.2 nM.
“(R)—N-(5-((4-(1H-pyrrole[3,2-c]pyridin-1-yl)-1,3,5-triazin-2-yl)amino)-2-(2-((dimethylamino)methyl)azetidine-1-yl)-4-methoxyphenyl)acrylamide [Example 1]” was tested, and the “cell activity compared with Osimertinib (AZD9291) against EGFR exon 20 insertion mutations” value [14] was “significant superior cell activity over Osimertinib (AZD9291)” and the “cell activity compared with Osimertinib (AZD9291) against HER2 exon 20 insertion mutation” value [15] was “superior cell activity over Osimertinib (AZD9291)”.
